The term IC50 denotes the concentration needed to halve the response being measured.

Bridge positions count the residues as written; N and C are the ends. Square brackets hold non-standard residues; d marks the D form. Peptide text beside a SMILES is read from it. * marks the point of attachment. ξ: configuration not given here. Phe(4-COOH) = N[C@@H](Cc1ccc(C(=O)O)cc1)C(=O)O; Bip = N[C@@H](Cc1ccc(-c2ccccc2)cc1)C(=O)O; Phe(3-Me) = Cc1cccc(C[C@H](N)C(=O)O)c1; Cha = N[C@@H](CC1CCCCC1)C(=O)O; Cit = NC(=O)NCCC[C@H](N)C(=O)O; Thr(3ξ) = CC(O)[C@H](N)C(=O)O; Carboxymethyl = O=C(O)C*; Orn = NCCC[C@H](N)C(=O)O; Aun = NCCCCCCCCCCC(=O)O; Dab = NCC[C@H](N)C(=O)O; AEEA = NCCOCCOCC(=O)O

In this experiment the target is T1, PD-1/PD-L1 interaction (PE-labeled human PD-L1-Ig binding to Jurkat cell line over-expressing human PD-1) (Homo sapiens, UniProt Q15116).
T1 construct: expressed in transfected cells; host or cells: Jurkat
T1 sequence (Q15116 25-288): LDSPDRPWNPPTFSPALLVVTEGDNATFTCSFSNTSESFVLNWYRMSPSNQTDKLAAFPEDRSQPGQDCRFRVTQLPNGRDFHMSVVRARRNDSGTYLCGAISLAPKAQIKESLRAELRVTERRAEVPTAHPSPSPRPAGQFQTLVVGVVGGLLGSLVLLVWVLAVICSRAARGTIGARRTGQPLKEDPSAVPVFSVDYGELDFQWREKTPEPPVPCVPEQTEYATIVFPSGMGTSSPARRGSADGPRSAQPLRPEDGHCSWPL
Kind of experiment: Jurkat-PD-1 Cell Binding High-Content Screening Assay (CBA). The experiment is classed as cell-based. The following applies: Jurkat cell line over-expressing human PD-1; PE-labeled PD-L1-Ig 20 nM final; read-out: Jurkat hPD1-PDL1 IC50. A digest of the protocol: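 Read-out is high-content imaging of cell-bound phycoerythrin-tagged PD-L1-Ig on fixed, Hoechst-counterstained Jurkat cells that over-express human PD-1. Compound exposure lasts 2 h at 37° C before the labeled ligand (20 nM final) is added for a further hour.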
For `Cc1cccc(C[C@@H]2NC(=O)[C@H](CC(=O)O)NC(=O)[C@H](Cc3ccc(OCC(=O)O)cc3)NC(=O)[C@H](C(C)O)NC(=O)CSC[C@@H](C(=O)N[C@@H](CCCCN)C(=O)NCCCCCCCCCCC(=O)O)NC(=O)[C@H](C(C)O)NC(=O)[C@H](C(C)C)NC(=O)[C@H](CC3CCCCC3)NC(=O)[C@H](CCN)NC(=O)[C@@H](CC(C)C)NC(=O)[C@H](CCCN)NC(=O)[C@H](CCCNC(N)=O)NC(=O)[C@H](Cc3ccc(-c4ccccc4)cc3)NC(=O)[C@H](C(C)C)NC2=O)c1` (stereo partly drawn) [Compound 3467] ({CH2CO}-[Thr(3ξ)]Y(Carboxymethyl)D[Phe(3-Me)]V[Bip][Cit][Orn][dL][Dab][Cha]V[Thr(3ξ)]CK[Aun]-OH; thioether N-14), the IC50 was 33 nM.
In the case of `Cc1cccc(C[C@@H]2NC(=O)[C@H](CC(=O)O)NC(=O)[C@H](Cc3ccc(OCC(=O)O)cc3)NC(=O)[C@H](CCCNC(=N)N)NC(=O)CSC[C@@H](C(=O)N[C@@H](CCCCN)C(=O)NCCCCCCCCCCC(=O)O)NC(=O)[C@H](C(C)O)NC(=O)[C@H](C(C)C)NC(=O)[C@H](CC3CCCCC3)NC(=O)[C@H](CCN)NC(=O)[C@@H](CC(C)C)NC(=O)[C@H](CCCN)NC(=O)[C@H](CCCNC(N)=O)NC(=O)[C@H](Cc3ccc(-c4ccccc4)cc3)NC(=O)[C@H](C(C)C)NC2=O)c1` (stereo partly drawn) [Compound 3468] ({CH2CO}-RY(Carboxymethyl)D[Phe(3-Me)]V[Bip][Cit][Orn][dL][Dab][Cha]V[Thr(3ξ)]CK[Aun]-OH; thioether N-14), the IC50 is 26 nM.
The same measure for `Cc1cccc(C[C@@H]2NC(=O)[C@H](CC(=O)O)NC(=O)[C@H](Cc3ccc(OCC(=O)O)cc3)NC(=O)[C@H](C(C)O)NC(=O)CSC[C@@H](C(=O)N[C@@H](CCCCN)C(=O)NCCCCCCCCCCC(=O)O)NC(=O)[C@H](CCCCN)NC(=O)[C@H](C(C)C)NC(=O)[C@H](CC3CCCCC3)NC(=O)[C@H](CCN)NC(=O)[C@@H](CC(C)C)NC(=O)[C@H](CCCN)NC(=O)[C@H](CCCNC(N)=O)NC(=O)[C@H](Cc3ccc(-c4ccccc4)cc3)NC(=O)[C@H](C(C)C)NC2=O)c1` (stereo partly drawn) [Compound 3469] ({CH2CO}-[Thr(3ξ)]Y(Carboxymethyl)D[Phe(3-Me)]V[Bip][Cit][Orn][dL][Dab][Cha]VKCK[Aun]-OH; thioether N-14): 16.9 nM; for `Cc1cccc(C[C@@H]2NC(=O)[C@H](CC(=O)O)NC(=O)[C@H](Cc3ccc(OCC(=O)O)cc3)NC(=O)[C@H](CCCNC(=N)N)NC(=O)CSC[C@@H](C(=O)N[C@@H](CCCCN)C(=O)NCCCCCCCCCCC(=O)O)NC(=O)[C@H](CCCCN)NC(=O)[C@H](C(C)C)NC(=O)[C@H](CC3CCCCC3)NC(=O)[C@H](CCN)NC(=O)[C@@H](CC(C)C)NC(=O)[C@H](CCCN)NC(=O)[C@H](CCCNC(N)=O)NC(=O)[C@H](Cc3ccc(-c4ccccc4)cc3)NC(=O)[C@H](C(C)C)NC2=O)c1` [Compound 3470] ({CH2CO}-RY(Carboxymethyl)D[Phe(3-Me)]V[Bip][Cit][Orn][dL][Dab][Cha]VKCK[Aun]-OH; thioether N-14): 24.8 nM; for `Cc1cccc(C[C@@H]2NC(=O)[C@H](CC(=O)O)NC(=O)[C@H](Cc3ccc(OCC(=O)O)cc3)NC(=O)[C@H](C(C)C)NC(=O)CSC[C@@H](C(=O)N[C@@H](CCCCN)C(=O)NCCCCCCCCCCC(=O)O)NC(=O)[C@H](C(C)O)NC(=O)[C@H](C(C)C)NC(=O)[C@H](CC3CCCCC3)NC(=O)[C@H](CCN)NC(=O)[C@@H](CC(C)C)NC(=O)[C@H](CCCN)NC(=O)[C@H](C(C)C)NC(=O)[C@H](Cc3ccc(-c4ccccc4)cc3)NC(=O)[C@H](C(C)C)NC2=O)c1` (stereo partly drawn) [Compound 3471] ({CH2CO}-VY(Carboxymethyl)D[Phe(3-Me)]V[Bip]V[Orn][dL][Dab][Cha]V[Thr(3ξ)]CK[Aun]-OH; thioether N-14): 21.2 nM.
With `Cc1cccc(C[C@@H]2NC(=O)[C@H](CC(=O)O)NC(=O)[C@H](Cc3ccc(OCC(=O)O)cc3)NC(=O)[C@H](C(C)O)NC(=O)CSC[C@@H](C(=O)N[C@@H](CCCCN)C(=O)NCCCCCCCCCCC(=O)O)NC(=O)[C@H](CCCCN)NC(=O)[C@H](C(C)C)NC(=O)[C@H](CC3CCCCC3)NC(=O)[C@H](CCN)NC(=O)[C@@H](CC(C)C)NC(=O)[C@H](CCCN)NC(=O)[C@H](C(C)C)NC(=O)[C@H](Cc3ccc(-c4ccccc4)cc3)NC(=O)[C@H](C(C)C)NC2=O)c1` (stereo partly drawn) [Compound 3472] ({CH2CO}-[Thr(3ξ)]Y(Carboxymethyl)D[Phe(3-Me)]V[Bip]V[Orn][dL][Dab][Cha]VKCK[Aun]-OH; thioether N-14) the figure was 13.3 nM; with `Cc1cccc(C[C@@H]2NC(=O)[C@H](CC(=O)O)NC(=O)[C@H](Cc3ccc(OCC(=O)O)cc3)NC(=O)[C@H](CCCNC(=N)N)NC(=O)CSC[C@@H](C(=O)N[C@@H](CCCCN)C(=O)NCCCCCCCCCCC(=O)O)NC(=O)[C@H](C(C)O)NC(=O)[C@H](C(C)C)NC(=O)[C@H](CC3CCCCC3)NC(=O)[C@H](CCN)NC(=O)[C@@H](CC(C)C)NC(=O)[C@H](CCCN)NC(=O)[C@H](Cc3ccc(O)cc3)NC(=O)[C@H](Cc3ccc(-c4ccccc4)cc3)NC(=O)[C@H](C(C)C)NC2=O)c1` (stereo partly drawn) [Compound 3473] ({CH2CO}-RY(Carboxymethyl)D[Phe(3-Me)]V[Bip]Y[Orn][dL][Dab][Cha]V[Thr(3ξ)]CK[Aun]-OH; thioether N-14), 15.1 nM.
With `Cc1cccc(C[C@@H]2NC(=O)[C@H](CC(=O)O)NC(=O)[C@H](Cc3ccc(OCC(=O)O)cc3)NC(=O)[C@H](CCCNC(=N)N)NC(=O)CSC[C@@H](C(=O)N[C@@H](CCCCN)C(=O)NCCCCCCCCCCC(=O)O)NC(=O)[C@H](CCCN)NC(=O)[C@H](C(C)C)NC(=O)[C@H](CC3CCCCC3)NC(=O)[C@H](CCN)NC(=O)[C@@H](CC(C)C)NC(=O)[C@H](CCCN)NC(=O)[C@H](CCCNC(N)=O)NC(=O)[C@H](Cc3ccc(-c4ccccc4)cc3)NC(=O)[C@H](C(C)C)NC2=O)c1` [Compound 3474] ({CH2CO}-RY(Carboxymethyl)D[Phe(3-Me)]V[Bip][Cit][Orn][dL][Dab][Cha]V[Orn]CK[Aun]-OH; thioether N-14) the figure was 11.8 nM.
Take `Cc1cccc(C[C@@H]2NC(=O)[C@H](CC(=O)O)NC(=O)[C@H](Cc3ccc(OCC(=O)O)cc3)NC(=O)[C@H](CCCNC(=N)N)NC(=O)CSC[C@@H](C(=O)N[C@@H](CCCCN)C(=O)NCCCCCCCCCCC(=O)O)NC(=O)[C@H](C(C)O)NC(=O)[C@H](C(C)C)NC(=O)[C@H](CC3CCCCC3)NC(=O)[C@H](CCN)NC(=O)[C@@H](CC(C)C)NC(=O)[C@H](CCCN)NC(=O)[C@H](C(C)C)NC(=O)[C@H](Cc3ccc(-c4ccccc4)cc3)NC(=O)[C@H](C(C)C)NC2=O)c1` (stereo partly drawn) [Compound 3475] ({CH2CO}-RY(Carboxymethyl)D[Phe(3-Me)]V[Bip]V[Orn][dL][Dab][Cha]V[Thr(3ξ)]CK[Aun]-OH; thioether N-14): the IC50 was 25.7 nM.
`Cc1cccc(C[C@@H]2NC(=O)[C@H](CC(=O)O)NC(=O)[C@H](Cc3ccc(OCC(=O)O)cc3)NC(=O)[C@H](CCCNC(=N)N)NC(=O)CSC[C@@H](C(=O)NCCOCCOCC(=O)NCCCCCCCCCCC(=O)O)NC(=O)[C@H](C(C)O)NC(=O)[C@H](C(C)C)NC(=O)[C@H](CC3CCCCC3)NC(=O)[C@H](CCN)NC(=O)[C@@H](CC(C)C)NC(=O)[C@H](CCCN)NC(=O)[C@H](Cc3ccc(OCC(=O)O)cc3)NC(=O)[C@H](Cc3ccc(-c4ccccc4)cc3)NC(=O)[C@H](Cc3ccc(OCC(=O)O)cc3)NC2=O)c1` (stereo partly drawn) [Compound 3477] ({CH2CO}-RY(Carboxymethyl)D[Phe(3-Me)]Y(Carboxymethyl)[Bip]Y(Carboxymethyl)[Orn][dL][Dab][Cha]V[Thr(3ξ)]C[AEEA][Aun]-OH; thioether N-14): the IC50 amounted to 38.4 nM.
The same measure for `Cc1cccc(C[C@@H]2NC(=O)[C@H](CC(=O)O)NC(=O)[C@H](Cc3ccc(OCC(=O)O)cc3)NC(=O)[C@H](C(C)O)NC(=O)CSC[C@@H](C(=O)NCCOCCOCC(=O)NCCCCCCCCCCC(=O)O)NC(=O)[C@H](C(C)O)NC(=O)[C@H](C(C)C)NC(=O)[C@H](CC3CCCCC3)NC(=O)[C@H](CCN)NC(=O)[C@@H](CC(C)C)NC(=O)[C@H](CCCN)NC(=O)[C@H](Cc3ccc(OCC(=O)O)cc3)NC(=O)[C@H](Cc3ccc(-c4ccccc4)cc3)NC(=O)[C@H](Cc3ccc(OCC(=O)O)cc3)NC2=O)c1` (stereo partly drawn) [Compound 3478] ({CH2CO}-[Thr(3ξ)]Y(Carboxymethyl)D[Phe(3-Me)]Y(Carboxymethyl)[Bip]Y(Carboxymethyl)[Orn][dL][Dab][Cha]V[Thr(3ξ)]C[AEEA][Aun]-OH; thioether N-14): 21.1 nM; for `Cc1cccc(C[C@@H]2NC(=O)[C@H](CC(=O)O)NC(=O)[C@H](Cc3ccc(OCC(=O)O)cc3)NC(=O)[C@H](CCCNC(=N)N)NC(=O)CSC[C@@H](C(=O)NCCOCCOCC(=O)NCCCCCCCCCCC(=O)O)NC(=O)[C@H](C(C)O)NC(=O)[C@H](C(C)C)NC(=O)[C@H](CC3CCCCC3)NC(=O)[C@H](CCN)NC(=O)[C@@H](CC(C)C)NC(=O)[C@H](CCCN)NC(=O)[C@H](Cc3ccc(OCC(=O)O)cc3)NC(=O)[C@H](Cc3ccc(-c4ccccc4)cc3)NC(=O)[C@H](Cc3ccc(C(=O)O)cc3)NC2=O)c1` (stereo partly drawn) [Compound 3479] ({CH2CO}-RY(Carboxymethyl)D[Phe(3-Me)][Phe(4-COOH)][Bip]Y(Carboxymethyl)[Orn][dL][Dab][Cha]V[Thr(3ξ)]C[AEEA][Aun]-OH; thioether N-14): 59.6 nM; for `Cc1cccc(C[C@@H]2NC(=O)[C@H](CC(=O)O)NC(=O)[C@H](Cc3ccc(OCC(=O)O)cc3)NC(=O)[C@H](CCCNC(=N)N)NC(=O)CSC[C@@H](C(=O)NCCOCCOCC(=O)NCCCCCCCCCCC(=O)O)NC(=O)[C@H](C(C)O)NC(=O)[C@H](C(C)C)NC(=O)[C@H](CC3CCCCC3)NC(=O)[C@H](CCN)NC(=O)[C@@H](CC(C)C)NC(=O)[C@H](CCCNC(N)=O)NC(=O)[C@H](Cc3ccc(OCC(=O)O)cc3)NC(=O)[C@H](Cc3ccc(-c4ccccc4)cc3)NC(=O)[C@H](C(C)C)NC2=O)c1` (stereo partly drawn) [Compound 3480] ({CH2CO}-RY(Carboxymethyl)D[Phe(3-Me)]V[Bip]Y(Carboxymethyl)[Cit][dL][Dab][Cha]V[Thr(3ξ)]C[AEEA][Aun]-OH; thioether N-14): 17.5 nM.
